Laboratory results from article PMC11591946, “Exploring the Potential of Biomimetic Peptides in Targeting Fibrillar and Filamentous Alpha-Synuclein—An In Silico and Experimental Approach to Parkinson’s Disease” (Biomimetics, 2024).
Where no end group is shown, it is not given here.

Experiments:
ASyn preformed fibrils = molecular target: T1, ASyn preformed fibrils (Homo sapiens, UniProt P37840); test: Thioflavin-T (ThT) assay; type: biochemical; settings: 20 μM ASyn preformed fibrils + 20 μM peptide in PBS, 70 μM ThT; for reduction in ThT fluorescence intensity: excitation 440 nm, over the course of 46 h
T1 construct: purchased StressMarq
Procedure: Thioflavin T assay was conducted to assess the effect of five peptides (PYYYWKELAQM; PYYYWKDPNGS; EQALMPEGMGLEDPNGS; ELAQMPYYYWKDPNGS; ELAQMPWIWYWKDPNGS) on ASyn preformed fibrils (StressMarq). […] [75]. The samples were prepared by incubating 20 μM of ASyn diluted in PBS buffer with 20 μM of each peptide. To each sample, 70 μM ThT dye diluted in deionized water was added. The prepared solutions were then transferred into quartz cuvettes, and the emission spectra at different time intervals were recorded. Samples were excited at 440 nm, and emission spectra were recorded between 460 nm to 550 nm at a slit of 3 nm.

[1] = DPPH radical scavenging antioxidant assay; type: biochemical; settings: colorimetric DPPH kit; at the highest concentrations (2, 10, 20, 40 µM tested)
Procedure: To investigate the antioxidant activity of the five peptides (PYYYWKELAQM; PYYYWKDPNGS; EQALMPEGMGLEDPNGS; ELAQMPYYYWKDPNGS; ELAQMPWIWYWKDPNGS), we conducted a colorimetric DPPH (2,2-diphenyl-1-picrylhydrazyl) radical scavenging assay using an antioxidant assay kit (AbCam, USA). In general, the protocol from the assay kit was followed to determine the antioxidant activity. Four different concentrations of each of the peptides were utilized (2 µM, 10 µM, 20 µM, and 40 µM). A standard curve was generated using Trolox, and then the activities of each of the peptides were compared by calculating the inhibition ratio.

| Sequence | reduction in ThT fluorescence intensity (ASyn preformed fibrils) | reduction in ThT fluorescence intensity at 48 h (ASyn preformed fibrils; at 48 h) | DPPH radical scavenging activity in comparison to Trolox (standard) [1] |
| --- | --- | --- | --- |
| ELAQMGPEGPMGLEDPNGS [ELAQMGPEGPMGLEDPNGS] | 32% | – | – |
| ELAQMPYYYWKDPNGS [ELAQMPYYYWKDPNGS] | 27% | – | – |
| EQALMPWIWYWKDPNGS [EQALMPWIWYWKDPNGS] | – | 42% | 19% |
| PYYYWKDPNGS [PYYYWKDPNGS] | 46.2% | – | – |
